Results from patent publication US20040048892A1, “Treatment of diseases with adamantane derivatives” (priority 2000, published 2004).
Read-outs that look alike come from different tables or passages of the source.

Experiments:
[1] = test system: inhibitory postsynaptic currents (IPSC) in outer hair cells (OHCs); experiment: Patch-clamp recording of inhibitory postsynaptic currents (IPSC) in outer hair cells; assay type: cell-based, Wistar rats
Experimental: (§1) The apical turn of the organ of Corti was dissected from cochleae of three to six week old Wistar rats as described previously (Oliver et al., 1999, J Physiol (Lond) 519, 791-800; Oliver et al., 2000, Neuron 26, 595-601). The preparation was performed in a solution containing (in mM) 144 NaCl, 5.8 KCl, 0.1 CaCl2, 2.1 MgCl2, 10 HEPES, 0.7 Na2HPO4, 5.6 glucose, pH adjusted to 7.3 with NaOH. For recordings, OHCs located between half and one turn from the apex of the cochlea were chosen. If necessary, supporting cells were removed with gentle suction from a cleaning pipette carefully avoiding mechanical disturbance of the efferent nerve terminals.
Whole-cell patch-clamp recordings were performed with an Axopatch 200B amplifier (Axon Instruments, Foster City, Calif.) at room temperature (22-25° C.). Electrodes were pulled from quartz glass, had resistances of 2-3 MΩ and were filled with intracellular solution (in mM): 135 KCl, 3.5 MgCl2, 0.1 CaCl2, 5 EGTA, 5 HEPES, 2.5 Na2ATP. For one series of experiments, an intracellular solution containing the Ca^2+-chelator BAPTA was used (in mM): 120 KCl, 3.5 MgCl2, 10 BAPTA, 5 HEPES, 2.5 Na2ATP. The pH of both solutions was adjusted to pH 7.3 with KOH. Membrane potential was corrected for the electrode junction potential (−4 mV). Whole-cell series resistance ranged from 4 to 9 MΩ and was not compensated. Currents were filtered at 1 kHz and sampled at 5 kHz. The specimen were continuously superfused with extracellular solution (in mM: 144 NaCl, 5.8 KCl, 2 CaCl2, 0.9 MgCl2, 10 HEPES, 0.7 Na2HPO4, 5.6 glucose, pH adjusted to 7.3 with NaOH). Chemicals as well as depolarizing solutions were applied via a glass capillary (diameter approximately 80 μm) positioned close to the organ of Corti. […]
In FIG. 1, postsynaptic currents were recorded from OHCs in voltage-clamp experiments when cells were held at −64 mV and the whole Corti preparation was superfused with high extracellular K^+ to depolarize the presynapse. […] This dose-dependent response determined for the IPSC in OHCs is illustrated in FIG. 1B.

α9/α10 nAChR = molecular target: T1, α9/α10 nAChR (Rattus norvegicus, UniProt P43144+Q9JLB5); experiment: Two-electrode voltage-clamp on α9/α10 nAChR expressed in Xenopus oocytes; assay type: cell-based
T1 construct: The coding region of the rat α10 gene; expressed in transfected cells; host or cells: Xenopus laevis oocytes (mRNA injection)
Experimental: (§2) In vitro mRNA synthesis and oocyte injections were performed as previously described (Fakler et al., 1995, Cell 80, 149-154; Oliver et al., 2000, see above). The electrophysiology on oocytes was also as described previously (Oliver et al., 2000, see above). In detail, AChR subunits and SK2 channels were heterologously expressed in Xenopus oocytes. Oocytes were surgically removed from adult females and dissected manually. 4-5 day prior to electrophysiological recordings, Dumont stage VI oocytes were injected with about 50 ng RNA. For coexpression experiments, the total amount of RNA was kept constant and the different RNAs were coinjected in equal concentrations. Two-electrode voltage-clamp measurements were performed with a TurboTec 01C amplifier (npi, Tamm, Germany), using microelectrodes of 0.1 to 0.5 MΩ filled with 3 M KCl. Extracellular medium was CaNFR, containing (in mM): 120 KCl, 2.5 KCl, 2 CaCl2, 10 HEPES, pH adjusted to 7.3 with NaOH. For experiments in the absence of extracellular Ca^2+, the extracellular solution was MgNFR (in mM): 120 KCl, 2.5 KCl, 2 MgCl2, 10 HEPES, pH adjusted to 7.3 with NaOH. ACh and memantine were added from stock solutions and applied through an application system, that allowed solution exchange with a time constant of ˜1s. Currents were filtered at 100 Hz and sampled at a frequency of 1 kHz. Dose-inhibition relations obtained from electrophysiological experiments were fitted to the empirical Hill equation, [formula]
where Inorm is the normalized current, c is the blocker concentration, IC50 is the half-inhibitory concentration, and nH is the Hill coefficient. Data analysis and fitting was performed with IgorPro (Wavemetrics, Lake Oswego, Oreg.) on a Macintosh PowerPC. Unless stated otherwise, data are presented as mean±standard deviation.
The coding region of the rat α10 gene (GenBank Accession No. AF196344) was amplified from rat brain cDNA by PCR using 5′- and 3′-adapter-primers containing suitable restriction sites (GA-GACCCGGGAGCTCCACC, […] and […]). The amplified fragments were subcloned into the Xenopus oocyte expression vector pGEM-HE (gift of Dr. J. Tytgat), yielding pGEM-HE-nAChR-α10, verified by sequencing. Capped mRNAs for α9, α10 and SK2 were synthesized in vitro using the mMESSAGE mMACHINE kit (Ambion, Austin, Tex.). To detect α10 and α9 transcripts, PCR was performed using reverse transcribed RNA isolated from either OHCs (containing some Deiters cells) or supporting cells (Deiters and Hensen's cells) as template. Cells were collected from rat organs of Corti using suction glass micropipettes (diameter 10 μm). RNA was prepared from ˜100 cells of each fraction using the Qiagen RNeasy kit (Qiagen, Hilden, FRG) according to the manufacturers instructions. The oligonucleotides used as primers in the PCR reactions were chosen to span an intron in the human α9 and α10 genes to allow differentiation between products originating from cDNA and products originating from contaminating genomic DNA.
In (A) currents evoked by activation of α9/α10 nAChRs are dependent on external Ca^2+. Traces show subsequent applications of 100 μM ACh to the same oocyte in CaNFR (Ca^2+) and MgNFR (Mg^2+) at −80 mV. (B) Currents from homomeric α9 (upper trace) and heteromeric α9/α10 nAChRs (lower trace), recorded by application of 100 μM ACh in nominally Ca^2+-free external solution (MgNFR; −80 mV). (C) Current amplitudes from oocytes expressing α9 and α9/α10, recorded as in FIG. 3B (mean±standard error from 12 and 15 oocytes, respectively). (D) ACh-induced (100 μM) currents recorded from α9/α10 nAChRs in the presence of the memantine concentrations indicated. (E) Memantine dose-inhibition curves of α9/α10 nAChR. Peak currents were recorded as in (D) and normalized to the current amplitude after washout of the blocker. […] (F) I-v relations of α9/α10 nAChR recorded in the absence (black) and presence (gray trace) of 1 μM memantine in response to 2 s voltage ramps from −100 to +50 mV. […]

[2] = molecular target: T2, nAChR-induced SK2 current (α9/α10 nAChR with SK2 channels) (Rattus norvegicus, UniProt P43144+Q9JLB5); experiment: nAChR-induced SK2 current in oocytes coexpressing α9, α10 and SK2; assay type: cell-based; details: −30 mV, 100 μM ACh
T2 construct: The coding region of the rat α10 gene; expressed in transfected cells; host or cells: Xenopus laevis oocytes (mRNA co-injection)
Experimental: as §2, with “ACh and memantine were added from stock solutions and applied through an application system, that allowed solution exchange with a time constant of ˜1s. Currents were filtered at 100 Hz and sampled at a frequency of 1 kHz. Dose-inhibition relations obtained from electrophysiological experiments were fitted to the empirical Hill equation, [formula]” left out
(A) Application of 100 μM ACh for the time indicated to an oocyte coexpressing α9, α10, and SK2. […] Peak outward currents were recorded at −30 mV and were normalized to the values preceding memantine application.

nAChR currents in OHCs = molecular target: T3, nAChR currents in OHCs (Rattus norvegicus, UniProt P43144+Q9JLB5); experiment: Steady-state block of nAChR currents in OHCs (BAPTA intracellular solution); assay type: cell-based, Wistar rats; details: −94 mV, 200 μM ACh, 10 mM BAPTA
T3 construct: Currents through nAChRs were recorded from an OHC; from tissue; host or cells: outer hair cells in the apical turn of the organ of Corti, Wistar rat
Experimental: as §1
Whole-cell patch-clamp recordings were performed with an Axopatch 200B amplifier (Axon Instruments, Foster City, Calif.) at room temperature (22-25° C.). Electrodes were pulled from quartz glass, had resistances of 2-3 MΩ and were filled with intracellular solution (in mM): 135 KCl, 3.5 MgCl2, 0.1 CaCl2, 5 EGTA, 5 HEPES, 2.5 Na2ATP. […]
(A) Steady-state block of nAChR currents in OHCs by memantine. Currents through nAChRs were recorded from an OHC at a holding potential of −94 mV. […] (B) Dose-inhibition relation for memantine block of nAChR currents (squares), recorded from 4 OHCs as in (A). Steady-state amplitudes were normalized to the value recorded in the absence of memantine. […]

[3] = molecular target: T4, α9/α10 heteromeric acetylcholine receptors (Rattus norvegicus, UniProt P43144+Q9JLB5); experiment: Experiment 6: voltage-clamp on alpha9/alpha10 acetylcholine receptors in Xenopus laevis oocytes; assay type: cell-based; details: cells held at −30 mV, 100 μM acetylcholine; read-out: halfmaximal inhibition concentration
T4 construct: The coding region of the rat α10 gene; expressed in transfected cells; host or cells: Xenopus laevis oocytes (mRNA injection)
Experimental: as §2, with “For experiments in the absence of extracellular Ca^2+, the extracellular solution was MgNFR (in mM): 120 KCl, 2.5 KCl, 2 MgCl2, 10 HEPES, pH adjusted to 7.3 with NaOH. ACh and memantine were added from stock solutions and applied through an application system, that allowed solution exchange with a time constant of ˜1s. Currents were filtered at 100 Hz and sampled at a frequency of 1 kHz. Dose-inhibition relations obtained from electrophysiological experiments were fitted to the empirical Hill equation, [formula]” left out
For further characterization of memantine treatment on the nAChR, the mRNA of alpha9/alpha10 subunits of the acetylcholine receptor were injected in oocytes of Xenopus laevis. […] In this experiment the polarization potential of the cells was measured after application of 100 μM acetylcholine in the presence or absence of memantine. […]

[4] = molecular target: NMDA-type glutamate receptors; details: at −70 mV; cited from earlier work
neuronal α4/β2 nAChRs = neuronal α4/β2 nAChRs (Homo sapiens, UniProt P17787+P43681); details: at −100 mV; cited from earlier work
neuronal α4/β2 nAChRs, sequence (P43681 29-627 limits assumed): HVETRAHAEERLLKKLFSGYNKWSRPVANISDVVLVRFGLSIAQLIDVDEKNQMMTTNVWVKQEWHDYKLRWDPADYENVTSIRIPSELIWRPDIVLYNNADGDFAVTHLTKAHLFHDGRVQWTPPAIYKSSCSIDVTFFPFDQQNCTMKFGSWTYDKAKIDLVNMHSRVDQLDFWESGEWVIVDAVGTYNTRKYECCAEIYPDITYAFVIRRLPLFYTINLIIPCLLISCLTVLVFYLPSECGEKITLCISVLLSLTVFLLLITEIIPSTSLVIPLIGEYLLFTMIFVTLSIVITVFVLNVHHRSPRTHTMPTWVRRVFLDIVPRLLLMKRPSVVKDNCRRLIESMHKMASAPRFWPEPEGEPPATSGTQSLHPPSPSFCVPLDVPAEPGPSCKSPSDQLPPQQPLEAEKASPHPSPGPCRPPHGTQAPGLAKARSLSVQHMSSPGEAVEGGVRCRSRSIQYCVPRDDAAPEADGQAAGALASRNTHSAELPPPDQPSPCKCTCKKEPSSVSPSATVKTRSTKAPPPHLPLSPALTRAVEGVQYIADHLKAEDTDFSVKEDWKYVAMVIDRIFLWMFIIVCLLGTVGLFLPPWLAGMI
neuronal α4/β2 nAChRs, sequence (P17787 26-502): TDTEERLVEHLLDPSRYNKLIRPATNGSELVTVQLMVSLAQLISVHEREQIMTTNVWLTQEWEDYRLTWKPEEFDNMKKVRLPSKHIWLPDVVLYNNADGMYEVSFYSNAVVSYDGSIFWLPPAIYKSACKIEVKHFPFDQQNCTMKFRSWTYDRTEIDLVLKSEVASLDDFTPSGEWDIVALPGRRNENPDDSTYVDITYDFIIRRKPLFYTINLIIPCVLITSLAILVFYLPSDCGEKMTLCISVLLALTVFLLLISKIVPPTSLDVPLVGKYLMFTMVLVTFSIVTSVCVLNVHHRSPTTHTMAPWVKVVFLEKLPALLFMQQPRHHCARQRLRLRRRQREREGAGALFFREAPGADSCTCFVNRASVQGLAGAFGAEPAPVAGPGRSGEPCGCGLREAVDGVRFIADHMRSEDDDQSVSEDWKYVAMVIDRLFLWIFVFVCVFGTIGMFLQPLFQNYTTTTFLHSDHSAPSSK

T1 sequence (P43144 26-479): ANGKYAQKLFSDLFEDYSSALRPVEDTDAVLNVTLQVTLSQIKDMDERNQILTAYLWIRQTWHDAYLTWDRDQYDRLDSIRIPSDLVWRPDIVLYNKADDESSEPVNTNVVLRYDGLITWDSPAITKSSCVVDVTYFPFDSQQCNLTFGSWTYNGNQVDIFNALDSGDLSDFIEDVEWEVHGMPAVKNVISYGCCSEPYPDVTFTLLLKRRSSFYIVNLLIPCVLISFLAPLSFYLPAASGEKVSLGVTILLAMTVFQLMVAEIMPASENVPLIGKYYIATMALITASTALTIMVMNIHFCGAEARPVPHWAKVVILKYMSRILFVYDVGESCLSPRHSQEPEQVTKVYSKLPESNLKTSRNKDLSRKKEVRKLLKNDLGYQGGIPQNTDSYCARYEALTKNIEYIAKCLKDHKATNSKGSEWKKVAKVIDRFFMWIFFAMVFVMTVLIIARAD
T1 sequence (Q9JLB5 25-447): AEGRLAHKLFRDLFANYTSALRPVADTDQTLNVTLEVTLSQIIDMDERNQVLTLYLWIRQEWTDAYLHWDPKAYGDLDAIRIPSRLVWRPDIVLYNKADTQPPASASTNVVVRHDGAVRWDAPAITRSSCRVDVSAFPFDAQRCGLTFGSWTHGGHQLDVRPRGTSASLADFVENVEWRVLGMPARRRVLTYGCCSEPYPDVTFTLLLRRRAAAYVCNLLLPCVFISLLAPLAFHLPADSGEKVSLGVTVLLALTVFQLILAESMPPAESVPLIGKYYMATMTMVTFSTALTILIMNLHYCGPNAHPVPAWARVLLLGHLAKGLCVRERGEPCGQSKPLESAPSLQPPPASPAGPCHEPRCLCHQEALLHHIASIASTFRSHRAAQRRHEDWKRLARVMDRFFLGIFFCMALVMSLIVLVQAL
T3 sequence (P43144 26-479): as the sequence (P43144 26-479) above
T3 sequence (Q9JLB5 25-447): as the sequence (Q9JLB5 25-447) above
T2 sequence (P43144 26-479): as the sequence (P43144 26-479) above
T2 sequence (Q9JLB5 25-447): as the sequence (Q9JLB5 25-447) above
T4 sequence (P43144 26-479): as the sequence (P43144 26-479) above
T4 sequence (Q9JLB5 25-447): as the sequence (Q9JLB5 25-447) above

For `CC12CC3CC(C)(C1)CC(N)(C3)C2` [memantine, 3.5-dimethyl-1-adamantanamine], the “Hill coefficient of inhibition of IPSCs” value [1] was 2, the “fold higher concentrations required for inhibition of IPSCs than for inhibition of SK2 currents in the oocyte system” value ([1]; IPSCs in OHCs vs SK2 currents in oocytes) was 10 fold and the IC50 ([1]; Rattus norvegicus, iPSC, read-out: IC50 for inhibition of IPSC in OHCs) was about 16600 nM. For the same compound, the “Increase of memantine block from +50 mV to −80 mV (factor)” value (α9/α10 nAChR; 1 μM memantine, voltage ramps, MgNFR) was 1.6, the IC50 (α9/α10 nAChR; CaNFR (2 mM Ca2+), 100 μM ACh, peak currents, read-out: IC50 of block of α9/α10 nAChR current) was 1300 nM and the “Hill coefficient nH of block of α9/α10 nAChR current” value (α9/α10 nAChR; CaNFR, 100 μM ACh) was 1.0. For the same compound, the IC50 (α9/α10 nAChR; MgNFR (nominally Ca2+-free), 100 μM ACh, peak currents, read-out: IC50 of block of α9/α10 nAChR current) was 1600 nM, the “Hill coefficient nH of block of α9/α10 nAChR current” value (α9/α10 nAChR; MgNFR, 100 μM ACh) was 1.2 and the IC50 (α9/α10 nAChR; summary of FIGS. 3E, 5B, read-out: affinity for memantine of α9/α10 receptors) was about 1000 nM. For the same compound, the “Hill coefficient nH of inhibition of the nAChR-induced SK2 current” value [2] was 1.1, the IC50 ([2]; peak outward currents, read-out: IC50 of inhibition of the nAChR-induced SK2 current) was 700 nM and the “Hill coefficient nH of block of nAChR currents in OHCs” value (nAChR currents in OHCs) was 0.9. For the same compound, the IC50 (nAChR currents in OHCs; steady-state) was 1100 nM, the IC50 [3] was about 1000 nM and the IC50 [4] was about 1000 nM. For the same compound, the IC50 (neuronal α4/β2 nAChRs) was 7000 nM.
